Active and inactive are the calls of the source. How the calls were made is not given here.
Tests used:
[1] = inhibitors of TNFa-induced E-selectin expression, confirmation, imaging, retest plus dose response, cell count (AID 1288); settings: human endothelial cells, TNFa-induced E-selectin, imaging; for cell count: cell count toxicity, at 10 µM, stronger effect = lower value; for inhibition: at 2 µM, stronger effect = higher value;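 on inhibition: 0% = stimulated vehicle wells and 100% = unstimulated vehicle wells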
[2] = test system: human endothelial cells, TNFa-induced E-selectin, imaging; assay: as above

| SMILES | cell count [1] [%] | IC50 [2] | inhibition [1] |
| --- | --- | --- | --- |
| COc1cccc(N2CCN(c3ncnc4c3[nH]c3ccc(F)cc34)CC2C)c1 (stereo unspecified) | 40.9 | 1.41 µM |  |
| Cc1ccccc1NC1=C/C(=N\S(=O)(=O)c2cccs2)c2ccccc2C1=O | 107 | > 10 µM (inactive) |  |
| COc1ccc(-c2nnc(SCC(=O)N3CCOCC3)o2)cc1OC | 18.5 | 4.05 µM |  |
| CC(C)(C)C(=O)/C(=C/c1cccc([N+](=O)[O-])c1)n1cncn1 | 101 | > 10 µM (inactive) |  |
| Cn1cc([N+](=O)[O-])c(C(=O)Nc2nc(-c3ccc(Cl)cc3)cs2)n1 | 97.8 | > 10 µM (inactive) |  |
| O=C(NCCC1=CCCCC1)c1coc(=O)c(Br)c1 | 1.14 | 2.77 µM |  |
| O=S(=O)(/C(=C/c1ccc(C(F)(F)F)cc1)c1nc2ccccc2[nH]1)c1ccccc1 | 104 | > 10 µM (inactive) |  |
| CN(C)C(=O)Oc1c(Cl)cc(Cl)c2cccnc12 | 20.8 | 2.55 µM |  |
| O=S(=O)(C/C(=C/CO)S(=O)(=O)c1ccccc1)c1ccccc1 | 97.8 | > 10 µM (inactive) |  |
| COc1cccc(-n2nc(C#N)c(Cl)cc2=O)c1 | 104 | > 10 µM (inactive) |  |
| COc1ccc(CS(=O)(=O)/C(Cl)=C(/Cl)C(=O)Nc2ccc(OC)nc2)cc1 | 105 | > 10 µM (inactive) |  |
| CCCn1c(=NC(=O)c2ccco2)c(C(=O)OCC)cc2c(=O)n3ccccc3nc21 | 64.4 | 4.41 µM |  |
| Oc1ccc(N2CCN(c3ncnc4sc(-c5ccccc5)cc34)CC2)cc1 | 25.6 | 1.88 µM |  |
| CC(C)(C)C(=O)/C(=C\c1cccc([N+](=O)[O-])c1)n1cncn1 | 23.9 | 3.04 µM |  |
| Cn1c(SC2=CS(=O)(=O)c3ccccc32)nc2ccccc21 | 13.4 | 2.53 µM |  |
| O=Cc1s/c(=N\S(=O)(=O)c2ccccc2)n(CCCCl)c1Cl | 108 | > 10 µM (inactive) |  |
| COCCN(CC(=O)NC1CCCCC1)C(=O)/C=C/C(=O)c1ccc(OC)cc1O | 95 | > 10 µM (inactive) |  |
| Cc1c(Nc2cc(Cl)c3nonc3c2[N+](=O)[O-])c(=O)n(-c2ccccc2)n1C | 66.3 | 6.67 µM |  |
| COc1ccc(-c2cc(C(=O)Nc3cnn(Cc4ccccc4C)c3)no2)cc1OC | 80.4 | 6.19 µM |  |
| CC(C)Oc1ccc(/C=N/NC(=O)C(CSCc2ccccc2)NC(=O)c2ccc([N+](=O)[O-])cc2)cc1 (stereo unspecified) | 71.8 | > 10 µM (inactive) |  |
| O=C(CO/N=C/c1ccccc1OC(F)F)NCc1cccs1 |  |  | 1.25% (inactive) |
| CC(NC(=O)COc1cccc(Br)c1)C(=O)O (stereo unspecified) |  |  | 24.6% (inactive) |

| SMILES | cell count [1] [%] | IC50 [2] | inhibition [1] |
| --- | --- | --- | --- |
| O=c1cc(-c2ccccc2)c2ccccc2[nH]1 |  |  | 35% (inactive) |
| Cc1cc(C(=O)CN2C(=O)CCC2=O)c(C)n1Cc1ccccc1 |  |  | 13.3% (inactive) |
| CN(C)c1ccc(NC(=S)NC(=O)/C=C/c2ccc(Cl)cc2)cc1 |  |  | 2.61% (inactive) |
| CCOC(=O)c1ccccc1NC(=O)c1ccc(N(C)S(C)(=O)=O)cc1 |  |  | 15.2% (inactive) |
| Cc1ccc(-n2c(=O)c3c4c(sc3n(Cc3cc(=O)n5ccccc5n3)c2=O)CCC4)cc1C |  |  | 3.95% (inactive) |
| CCOC(=O)c1c(NC(C)=O)sc2c(O)cccc12 |  |  | 35.6% (inactive) |
| c1ccc(Nc2nc3ccccc3n3cnnc23)cc1 |  |  | 6.89% (inactive) |
| Cn1nnnc1SCc1nnc(-c2ccc(Cl)cc2)o1 |  |  | 6.53% (inactive) |
| Cn1c(SCc2ccc(C#N)cc2)nnc1-c1cccc(Cl)c1 |  |  | 7.7% (inactive) |
| CCCCCn1c(SCC#N)nc2cc(C(=O)NCC3CCCO3)ccc2c1=O (stereo unspecified) |  |  | 7.32% (inactive) |
| O=C(O)/C=C/c1ccc2ccccc2n1 |  |  | -2.31% (inactive) |
| COc1ccc(N/C=C/C(=O)c2ccc(C)cc2)c([N+](=O)[O-])c1 |  |  | 17.3% (inactive) |
| Cn1c(NCCN2CCCCC2)cc(=O)n(C)c1=O |  |  | 22.7% (inactive) |
| O=C(CCn1nnc2ccccc21)Nc1nnc(Cc2ccc(F)cc2)s1 |  |  | 5.36% (inactive) |
| N#Cc1cc2sc3nnc(-c4ccncc4)n3c2cc1C#N |  |  | 24.9% (inactive) |
| C1=C(c2ccc(-c3ccccc3)cc2)Nc2ncnn2C1c1ccco1 (stereo unspecified) |  |  | 26.2% (inactive) |
| COc1ccc(/C=N/NC(=O)C(C)n2cnc3ccccc3c2=O)cc1OC (stereo unspecified) |  |  | -0.71% (inactive) |
| O=S(=O)(Nc1ccccn1)c1ccc(Cl)c2ccccc12 |  |  | 9.42% (inactive) |
| O=C1CC(Sc2nnc(-c3ccccc3O)o2)C(=O)N1c1ccccc1 (stereo unspecified) |  |  | 9.02% (inactive) |
| CCOC(=O)N1CCc2c(sc3c2c(=O)n(Cc2ccccc2)c(=O)n3Cc2cccc(C)c2)C1 |  |  | 5.64% (inactive) |
| CCS(=O)(=O)N1CCCC(C(=O)NCc2cccc(OC)c2)C1 (stereo unspecified) |  |  | 12.7% (inactive) |
| COC(=O)c1cc(Br)c(=O)n(Cc2ccncc2)c1 |  |  | 6.86% (inactive) |

| SMILES | cell count [1] [%] | IC50 [2] | inhibition [1] |
| --- | --- | --- | --- |
| CCOc1cc(C(=O)NCc2nnc(SCC(=O)OC)n2C)cc(OCC)c1OCC |  |  | -6.58% (inactive) |
| O=C(c1c(Cl)nc2sccn12)N1CCCc2ccccc21 |  |  | 0.11% (inactive) |
| CCOc1ccc(N2CC(C(=O)NCCCN3CCOCC3)CC2=O)cc1 (stereo unspecified) |  |  | 11.2% (inactive) |
| Cc1nc2oc(C(=O)c3ccccc3)c(N)c2c2c1COC(C)(C)C2 |  |  | 0.22% (inactive) |
| Cc1cc(S(=O)(=O)N2CCN(c3ccccc3O)CC2)c(C)s1 |  |  | 5.21% (inactive) |
| COc1ccc(-c2csc3ncnc(Oc4cccc5ccc(C)nc45)c23)cc1 |  |  | 5.48% (inactive) |
| C=CCn1c(=O)c2ccccc2n2c(SCC(=O)N3CCCc4ccccc43)nnc12 |  |  | 6.51% (inactive) |
| CCOc1cc2[nH]c(=O)n(CCCN3CCCC3=O)c(=O)c2cc1OCC |  |  | 17% (inactive) |
| CCCC(=O)C1=C(O)C(C(=O)OC)C(C)(C)CC1=Nc1ccc(N)cc1 (stereo unspecified) |  |  | 10.6% (inactive) |
| C=CCN1C(c2cccc(C(F)(F)F)c2)=CS/C1=C(/C#N)c1nnc(N2CCOCC2)n1-c1ccccc1 |  |  | 31.5% (inactive) |
| C=C(C)CC(NCCc1ccccc1)c1ccco1 (stereo unspecified) |  |  | 1.31% (inactive) |
| Cc1ccccc1Cn1ccc(NC(=O)c2cnn3c2NC(c2ccccc2)CC3C(F)(F)F)n1 (stereo unspecified) |  |  | 2.9% (inactive) |
| CCC(Sc1nc2c(c(=O)n1CC)SC(C)C2)C(=O)OC (stereo unspecified) |  |  | 6.81% (inactive) |
| CN1CCN(S(=O)(=O)c2ccc(NC(=O)c3ccc(F)cc3)cc2)CC1 |  |  | 5.58% (inactive) |
| Cc1ccc(C(C)n2cc(C(=O)NCCN3CCN(C)CC3)nn2)cc1 (stereo unspecified) |  |  | 22.4% (inactive) |
| COc1cc(C(=O)Nc2ccc3c(c2)C(=O)c2ccccc2C3=O)cc(OC)c1OC |  |  | 12.8% (inactive) |
| O=C(O)CSC1c2ccccc2C(=O)N1Cc1ccccc1 (stereo unspecified) |  |  | 2.25% (inactive) |
| CC(=O)OC(C(=O)NCc1ccco1)c1cccnc1 (stereo unspecified) |  |  | 6.49% (inactive) |
| COc1ccc(NC(=O)c2ccc(CNc3c(NC4CCCCC4)c(=O)c3=O)cc2)cc1OC |  |  | 3.32% (inactive) |
| C/C=C/Cn1c(N2CCCCCC2)nc2c1c(=O)[nH]c(=O)n2C |  |  | 17.1% (inactive) |
| O=C(NCN1C(=O)C2C3C=CC(C3)C2C1=O)Nc1nncs1 (stereo unspecified) |  |  | 1.86% (inactive) |
| CCCn1c(SCC(=O)N2c3ccccc3Sc3ccccc32)nc2c1c(=O)n(C)c(=O)n2C |  |  | -8.34% (inactive) |

Reference: PubChem BioAssay AID1288 (Columbia University Molecular Screening Center, 2008)
